Results taken from ChEMBL document CHEMBL1201862, “PubChem BioAssay data set” (2004).
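Test compounds were applied to cells in 96-well plates for 48 hours at 5 doses. GI50 = concentration required for 50% inhibition of growth.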 The source made the active and inactive calls. Rule as the data show it: active = GI50 up to about 1.1 µM and inactive = higher.

Key:
Assay in all cases: DTP human tumour cell line panel, 48 h
[1] = tested on: K562
[2] = tested on: HOP-92
[3] = tested on: SW-620
[4] = tested on: U-251
[5] = tested on: A498
[6] = tested on: A549
[7] = tested on: BT-549
[8] = tested on: RXF 393
[9] = tested on: HOP-62
[10] = tested on: KM12
[11] = tested on: SK-MEL-28
[12] = tested on: MDA-MB-435
[13] = tested on: HL-60
[14] = tested on: ACHN
[15] = tested on: SF-295
[16] = tested on: SK-MEL-2
[17] = tested on: UO-31
[18] = tested on: OVCAR-4

Measured: GI50

Cc1cc(C)c(S(=O)(=O)N2CCCN(S(=O)(=O)c3c(C)cc(C)cc3C)OCCCO2)c(C)c1
inactive: [1] > 100 µM | [2] 47.1 µM | [3] > 100 µM | [4] > 100 µM | [5] > 100 µM | [6] > 100 µM | [7] > 100 µM | [8] > 100 µM | [9] > 100 µM | [10] > 100 µM | [11] > 100 µM | [12] > 100 µM | [13] > 100 µM | [14] > 100 µM | [15] > 100 µM | [16] > 100 µM | [17] > 100 µM | [18] 79.4 µM

O=C(O)CNc1ccc2c(c1)Cc1cc(Br)ccc1-2
inactive: [1] 9.29 µM | [2] 25.6 µM | [3] 24.2 µM | [4] 26.6 µM | [5] 22 µM | [6] 21.3 µM | [7] 23.3 µM | [8] 31 µM | [9] > 44.6 µM | [10] 9.57 µM | [11] 31.3 µM | [12] 15.3 µM | [13] 23.4 µM | [14] 33.1 µM | [15] 24.5 µM | [16] 26 µM | [17] 36 µM | [18] 20.1 µM

N#Cc1c(-c2ccc(Cl)cc2)c(C#N)c(=O)n(NS(=O)(=O)c2ccccc2)c1-c1ccccc1
inactive: [1] > 25 µM | [2] > 25 µM | [3] > 25 µM | [4] > 25 µM | [5] > 25 µM | [6] > 25 µM | [7] > 25 µM | [8] > 25 µM | [9] > 25 µM | [11] > 25 µM | [12] > 25 µM | [13] > 25 µM | [14] > 25 µM | [15] > 25 µM | [16] > 25 µM | [18] > 25 µM

CC(C)CCC[C@@H](C)C1CCC2[C@@H]3CCC4CC(CCC=C(c5cc(Cl)c(OC(=O)c6ccccc6)c(C(=O)O)c5)c5cc(Cl)c(OC(=O)c6ccccc6)c(C(=O)O)c5)CC[C@]4(C)C3CC[C@@]21C (stereo partly drawn)
inactive: [1] > 100 µM | [2] 28.1 µM | [3] > 100 µM | [4] > 100 µM | [5] 52.5 µM | [6] > 100 µM | [7] > 100 µM | [8] > 100 µM | [9] > 100 µM | [10] > 100 µM | [12] 72.8 µM | [13] > 100 µM | [14] > 100 µM | [16] > 100 µM | [17] > 100 µM | [18] > 100 µM
